Experimental data as given in patent publication US20240217968A1, “PHARMACEUTICAL COMPOUND” (DUKE STREET BIO LIMITED, priority 2021, published 2024).

What follows are compounds tested against T1, recombinant human Flag-tagged PARP7 (amino acids 456-657) (Homo sapiens, UniProt Q7Z3E1) (assay: PARP7 biochemical DELFIA assay (auto-MARylation)). Conditions: DELFIA readout, IC50 class.
T1 construct: recombinant human Flag-tagged PARP7 (amino acids 456-657)
T1 sequence (Q7Z3E1 456-657): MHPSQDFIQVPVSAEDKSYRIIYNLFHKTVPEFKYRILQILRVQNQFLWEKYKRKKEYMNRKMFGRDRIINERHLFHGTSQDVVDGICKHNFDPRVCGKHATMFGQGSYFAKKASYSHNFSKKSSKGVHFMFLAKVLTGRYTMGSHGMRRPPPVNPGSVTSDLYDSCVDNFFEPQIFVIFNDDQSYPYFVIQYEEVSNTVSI
Method in brief: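 Readout is DELFIA time-resolved Eu fluorescence (Ex337 nm, Em620 nm) of biotin-ADP-ribose on immobilised Flag-tagged PARP7 456-657. Enzyme (12.5-37.5 nM as added) sat 30 min with compound before biotin-NAD+ (15 μM solution, pH 7.5 HEPES buffer) started 2-3 h room-temperature self-modification, stopped with excess NAD+.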

IC50, 1000 to 10000 nM:
O=C1NCCc2c1ccn2CCOCCC(=O)N1CCN(c2ncc(C(F)(F)F)cn2)CC1 [Compound 56]
CC(COCCC(=O)N1CCN(c2ccc(C#N)cn2)CC1)c1cccc2c(=O)[nH]ncc12 (stereo not shown) [Compound 70]
N#Cc1ccc(N2CCN(C(=O)c3cccc(OCc4cccc5c(=O)[nH]ncc45)c3)CC2)nc1 [Compound 93]
O=C(c1cccc(OCc2cccc3c(=O)[nH]ncc23)c1)N1CCN(c2ncc(C(F)(F)F)cn2)CC1 [Compound 94]
CN(C(=O)COCCc1cccc2c(=O)[nH]ncc12)C1CN(c2ncc(C(F)(F)F)cn2)C1 [Compound 109]
N#Cc1ccc(OC2CCN(C(=O)CCOCCc3cccc4c(=O)[nH]ncc34)C2)nc1 (stereo not shown) [Compound 116]
O=C1NCCc2c(NCCOCC(=O)N3CCN(c4ncc(C(F)(F)F)cn4)CC3)cccc21 [Compound 117]
CC(COCCC(=O)N1CCN(c2ncc(C(F)(F)F)cn2)CC1)c1cc(F)cc2c(=O)[nH]ncc12 (stereo not shown) [Compound 119]

IC50, 100 to 1000 nM:
CNCc1cc2c(=O)[nH]ncc2n1CCOCCC(=O)N1CCN(c2ncc(C(F)(F)F)cn2)CC1 [Compound 49]
O=C(CCOCCn1cnc2c(=O)[nH]ncc21)N1CCN(c2ncc(C(F)(F)F)cn2)CC1 [Compound 51]
O=C(CCOCCc1cccc2c(=O)[nH]nnc12)N1CCN(c2ncc(C(F)(F)F)cn2)CC1 [Compound 52]
O=C(CCOCCn1ccc2c(=O)[nH]cnc21)N1CCN(c2ncc(C(F)(F)F)cn2)CC1 [Compound 53]
O=C1NCc2c(CCOCCC(=O)N3CCN(c4ncc(C(F)(F)F)cn4)CC3)cccc21 [Compound 54]
O=C(NCCOc1cccc2c(=O)[nH]ncc12)N1CCN(c2ncc(C(F)(F)F)cn2)CC1 [Compound 58]
CCc1cc2c(=O)[nH]ncc2n1CCOCCC(=O)N1CCN(c2ncc(C(F)(F)F)cn2)CC1 [Compound 59]
O=C(CCNCCN1CCCc2c1cn[nH]c2=O)N1CCN(c2ncc(C(F)(F)F)cn2)CC1 [Compound 61]
CC(COCCC(=O)N1CCN(c2ccc(C#N)cn2)CC1)N1CCCc2c1cn[nH]c2=O (stereo not shown) [Compound 62]
N#Cc1ccc(N2CCN(C(=O)c3cccc(Cc4cccc5c4C(=O)NC5=O)c3)CC2)nc1 [Compound 66]
N#Cc1ccc(N2CCN(C(=O)CCOCCc3cc(C(F)(F)F)cc4c(=O)[nH]ncc34)CC2)nc1 [Compound 68]
O=C(CCOCCc1cc(C(F)(F)F)cc2c(=O)[nH]ncc12)N1CCN(c2ncc(C(F)(F)F)cn2)CC1 [Compound 69]
CC(COCCC(=O)N1CCN(c2ncc(C(F)(F)F)cn2)CC1)n1ccc2c(=O)[nH]ncc21 (stereo not shown) [Compound 76]
N#Cc1ccc(N2CCN(C(=O)CCOCCn3c(C(F)(F)F)cc4c(=O)[nH]ncc43)CC2)nc1 [Compound 78]
N#Cc1ccc(N2CCN(C(=O)CCOCCn3ncc4c(=O)[nH]ncc43)CC2)nc1 [Compound 92]
O=C(CCOCCc1cccc2c(=O)[nH]ncc12)N1CCN(c2ccc(F)cn2)CC1 [Compound 95]
O=C(CCOCCc1cccc2c(=O)[nH]ncc12)N1CCN(c2ccccn2)CC1 [Compound 103]
O=C(CCOCCc1cccc2c(=O)[nH]ncc12)N1CCN(c2ncccn2)CC1 [Compound 104]
O=C(NCCOCc1cccc2c(=O)[nH]ncc12)C1CCN(c2ncc(C(F)(F)F)cn2)CC1 [Compound 110]
N#Cc1ccc(N2CCN(C(=O)CCOCCc3cc(C#N)cc4c(=O)[nH]ncc34)CC2)nc1 [Compound 111]
N#Cc1cc(CCOCCC(=O)N2CCN(c3ncc(C(F)(F)F)cn3)CC2)c2cn[nH]c(=O)c2c1 [Compound 112]
CS(=O)(=O)c1ccc(N2CCN(C(=O)CCOCCc3cccc4c(=O)[nH]ncc34)CC2)nc1 [Compound 113]
O=C(CCOCCc1cccc2c(=O)[nH]ncc12)N1CCC(c2ncc(Cl)cn2)CC1 [Compound 115]
O=C(CCOCCc1cccc2c(=O)[nH]ncc12)N1CCC(c2ccc(Cl)cn2)CC1 [Compound 118]

IC50, ≤ 100 nM:
O=C1NCNc2c(CCOCCC(=O)N3CCN(c4ncc(C(F)(F)F)cn4)CC3)cccc21 [Compound 48]
O=C(CCOCCn1ncc2c(=O)[nH]ncc21)N1CCN(c2ncc(C(F)(F)F)cn2)CC1 [Compound 50, 1-(2-(3-oxo-3-(4-(5-(trifluoromethyl)pyrimidin-2-yl)piperazin-1-yl)propoxy)ethyl)-1,5-dihydro-4H-pyrazolo[3,4-d]pyridazin-4-one]
CN1CCN(CCOCCC(=O)N2CCN(c3ncc(C(F)(F)F)cn3)CC2)c2cn[nH]c(=O)c21 [Compound 55]
N#Cc1ccc(N2CCN(C(=O)c3cccc(Cc4cc(Cl)cc5c(=O)[nH]ncc45)c3)CC2)nc1 [Compound 57]
O=C(CCOCCn1c(C(F)(F)F)cc2c(=O)[nH]ncc21)N1CCN(c2ncc(C(F)(F)F)cn2)CC1 [Compound 60, 1-(2-(3-oxo-3-(4-(5-(trifluoromethyl)pyrimidin-2-yl)piperazin-1-yl)propoxy)ethyl)-2-(trifluoromethyl)-1,5-dihydro-4H-pyrrolo[2,3-d]pyridazin-4-one]
CC(COCCC(=O)N1CCN(c2ncc(C(F)(F)F)cn2)CC1)N1CCCc2c1cn[nH]c2=O (stereo not shown) [Compound 63]
N#Cc1ccc(N2CCN(C(=O)CCOCCc3cccc4c(=O)[nH]ncc34)CC2)nc1 [Compound 67]
Cc1cn(CCOCCC(=O)N2CCN(c3ncc(C(F)(F)F)cn3)CC2)c2cn[nH]c(=O)c12 [Compound 74, 3-methyl-1-(2-(3-oxo-3-(4-(5-(trifluoromethyl)pyrimidin-2-yl)piperazin-1-yl)propoxy)ethyl)-1,5-dihydro-4H-pyrrolo[2,3-d]pyridazin-4-one]
CC(COCCC(=O)N1CCN(c2ncc(C(F)(F)F)cn2)CC1)n1ccc2c(=O)[nH]ncc21 (stereo not shown) [Compound 75]
Cc1cc2c(=O)[nH]ncc2n1CCOCCC(=O)N1CCN(c2ncc(C(F)(F)F)cn2)CC1 [Compound 77]
N#Cc1ccc(N2CCN(C(=O)CCOCCc3cc(Cl)cc4c(=O)[nH]ncc34)CC2)nc1 [Compound 79]
O=C(CCOCCc1cc(Cl)cc2c(=O)[nH]ncc12)N1CCN(c2ncc(C(F)(F)F)cn2)CC1 [Compound 80, 7-chloro-5-(2-(3-oxo-3-(4-(5-(trifluoromethyl)pyrimidin-2-yl)piperazin-1-yl)propoxy)ethyl)phthalazin-1(2H)-one]
N#Cc1ccc(N2CCN(C(=O)CCOCCc3cc(F)cc4c(=O)[nH]ncc34)CC2)nc1 [Compound 81]
O=C(CCOCCc1cc(F)cc2c(=O)[nH]ncc12)N1CCN(c2ncc(C(F)(F)F)cn2)CC1 [Compound 82]
CC1CN(c2ccc(C#N)cn2)CCN1C(=O)CCOCCc1cccc2c(=O)[nH]ncc12 (stereo not shown) [Compound 85]
CC1CN(c2ncc(C(F)(F)F)cn2)CCN1C(=O)CCOCCc1cccc2c(=O)[nH]ncc12 (stereo not shown) [Compound 87]
CC1CN(c2ncc(C(F)(F)F)cn2)CCN1C(=O)CCOCCc1cccc2c(=O)[nH]ncc12 (stereo not shown) [Compound 88]
CC1CN(C(=O)CCOCCc2cccc3c(=O)[nH]ncc23)CCN1c1ncc(C(F)(F)F)cn1 (stereo not shown) [Compound 89]
CC1CN(C(=O)CCOCCc2cccc3c(=O)[nH]ncc23)CCN1c1ncc(C(F)(F)F)cn1 (stereo not shown) [Compound 90]
CC1CN(C(=O)CCOCCc2cccc3c(=O)[nH]ncc23)CCN1c1ccc(C#N)cn1 (stereo not shown) [Compound 91]
O=C(CCOCCc1cccc2c(=O)[nH]ncc12)N1CCN(c2ccc(Cl)cn2)CC1 [Compound 96]
O=C(CCOCCc1cccc2c(=O)[nH]ncc12)N1CCN(c2ccc(C(F)F)cn2)CC1 [Compound 97]
O=C(CCOCCc1cccc2c(=O)[nH]ncc12)N1CCN(c2ccc(C(F)(F)F)cn2)CC1 [Compound 98, 5-(2-(3-oxo-3-(4-(5-(trifluoromethyl)pyridin-2-yl)piperazin-1-yl)propoxy)ethyl)phthalazin-1(2H)-one]
O=C(CCOCCc1cccc2c(=O)[nH]ncc12)N1CCN(c2ncc(F)cn2)CC1 [Compound 99]
O=C(CCOCCc1cccc2c(=O)[nH]ncc12)N1CCN(c2ncc(Cl)cn2)CC1 [Compound 100]
O=C(CCOCCc1cccc2c(=O)[nH]ncc12)N1CCN(c2ncc(C(F)F)cn2)CC1 [Compound 101]
N#Cc1cnc(N2CCN(C(=O)CCOCCc3cccc4c(=O)[nH]ncc34)CC2)nc1 [Compound 102]
O=C(CCOCCc1cccc2c(=O)[nH]ncc12)N1CCN(c2cnc(C(F)(F)F)cn2)CC1 [Compound 105]
O=C(CCOCCc1cccc2c(=O)[nH]ncc12)N1CCN(c2ncc(C(F)(F)F)s2)CC1 [Compound 106]
O=C(COCCc1cccc2c(=O)[nH]ncc12)NC1CCN(c2ncc(C(F)(F)F)cn2)CC1 [Compound 107]
CN(C(=O)COCCc1cccc2c(=O)[nH]ncc12)C1CCN(c2ncc(C(F)(F)F)cn2)CC1 [Compound 108]
O=C(CCOCCc1cccc2c(=O)[nH]ncc12)N1CCN(c2ccc(OC(F)(F)F)cn2)CC1 [Compound 114]
